Measured values as given in patent US20210236784A1, “DEVICE FOR ORAL DELIVERY OF ACTIVE AGENTS” (Entrega Inc., priority 2015, published 2021).

Test: Surgical Bioavailability Assay
Type: in vivo
Conditions: pig; octreotide; porcine surgical model, device/dosage form placed in the intestine (jejunum, ileum); from active agent levels in blood samples; FIG. 23
Experimental: To determine bioavailability, mucoadhesive devices according to aspects of the present disclosure, as well as comparative dosage forms, are tested by a surgical model (Surgical Bioavailability Assay).
Surgical Bioavailability Assay. In the Surgical Bioavailability Assay, a porcine model is used, in which the animals undergo open surgery such that devices and/or dosage forms to be tested can be placed at regions of the intestine of interest, such as the jejunum and ileum. After administration of anesthesia, a ventral midline incision is made to gain access to the animal's abdominal cavity. The jejunum and ileum are exposed, and incisions are made to manually place the devices and/or dosage forms being tested. After placement of the device and/or dosage form is complete, the intestinal incisions are closed, and the midline incision can also be temporarily closed. Also, access can be made for blood collection via the carotid artery or jugular vein. The animal can be kept under anesthesia for up to 4 hours to allow for blood collection, such as at 5 mins, 15 mins, 30 mins, 60 mins, 90 mins, and 2 hours after oral dosage form placement. Blood samples can also be collected prior to the surgical procedure. The percent bioavailability of the active agent provided with the devices and/or dosage forms is determined on the basis of the active agent levels detected in these blood samples. […]

Question: With `C[C@@H](O)[C@@H]1NC(=O)[C@H](CCCCN)NC(=O)[C@@H](Cc2c[nH]c3ccccc23)NC(=O)[C@H](Cc2ccccc2)NC(=O)[C@@H](NC(=O)[C@H](N)Cc2ccccc2)CSSC[C@@H](C(=O)N[C@H](CO)[C@@H](C)O)NC1=O` [octreotide solution, octreotide] as the compound, how does the bioavailability read?
Answer: ~1%
